Values belong to the molecule of their own block, whether it stands above or below them.
Key:
[1] = tested on: Malassezia furfur (MTCC 1374); assay: MIC by agar dilution method in Leeming Notman Medium; assay type: cell-based; parameters: key: “+” indicates growth of fungus; “−” indicates no growth of fungus; conditions: M. furfur
Experimental: The Minimum Inhibitory Concentration (MIC) is considered as an index for indicating Anti-fungal efficacy. Therefore lower the value of MIC of the composition, the better is its anti-fungal efficacy.
Method: The in vitro activities of some of the oil compositions containing piroctone olamine against Malassezia furfur (MTCC 1374) were determined by agar dilution methods (Jan Faergemann, et al Acta Derm Venereol, (2006), 86:312; Irith Wiegand, et al Nature Protocols (2008), 3:163) Appropriate dilutions of solubilized antifungal compositions were added to molten Leeming Notman Medium. Once the plates were set, M. furfur innoculum adjusted to appropriate cfu/ml was streaked on the agar plates and incubated for 6 days. […] The MIC is defined as as the lowest concentration of antifungal agents that inhibits visible growth of fungus.
Method: The in vitro activities of some of the oil compositions containing ketoconazole against Malassezia furfur (MTCC 1374) were determined by agar dilution methods. Appropriate dilutions of antifungal compositions were added to molten Leeming Notman Medium. Once the plates were set, M. furfur innoculum adjusted to appropriate cfu/ml was streaked on the agar plates and incubated for 6 days. […] The MIC is defined as the lowest tested dilution of antifungal active that yields no growth.
B) Study of MIC of Oil Compositions Devoid of C-11 or Greater Fatty Acids/Esters Containing Antifungal Agent Piroctone Olamine Against M. furfur Under in vitro Conditions.

M. obtusa = assay: MIC of oil compositions against M. obtusa; assay type: cell-based; parameters: key: “+” indicates growth of fungus; “−” indicates no growth of fungus
M. furfur (MTCC 1374) = assay: Lipid assimilation in vitro assay: growth of M. furfur on Sabouraud Dextrose agar supplemented with fatty acids/esters or oils; assay type: cell-based, Malassezia furfur; conditions: up to 6 days
From the text: (§1) Malassezia species are lipophilic unipolar yeasts recognized as commensals of skin that may be pathogenic under certain conditions (Indian Journal of Medical Microbiology, (2004) 22 (3):179-181). To compare lipid requirements of the fungus most closely associated with dandruff/seborrheic dermatitis, the best studied Malassezia species is M. furfur. Lipid assimilation in vitro assay was designed to investigate lipid effect on growth of M. furfur (MTCC 1374).
Method: Briefly, Sabouraud Dextrose containing low-melt agar was melted, cooled to 38° C. Fatty acids/esters constituents eg, capric acid, caprylic acid, linoleic acid, oleic acid, lauric acid, palmitic acid, ethyl oleate, isopropyl myristate and oils containing fatty acid/esters eg, coconut oil, mustard oil etc., were added to study the growth of the fungus (Kaw Bing CHUA, et al Malaysian J Pathol (2005) 27(2): 99). After solidification, agar plates were streaked with M. furfur innoculum adjusted to appropriate cfu/ml, aseptically. Positive control with 2% olive oil and negative control without fatty substance were also maintained.
as §1, with “lipophilic,” for “lipophilic”, “conditions.” for “conditions (Indian Journal of Medical Microbiology, (2004) 22 (3):179-181).”, “A lipid” for “Lipid”, “effect <C-11 fatty acid or their esters” for “effect”
Briefly, Sabouraud Dextrose containing low-melt agar was melted and cooled to 38° C. Fatty acids/esters constituents, e.g., caprylic acid, capric acid and Monocaprylate of propylene glycol, were added in 2% concentration to study the growth of the fungus. After solidification, agar plates were streaked with M. furfur innoculum adjusted to appropriate cfu/ml, aseptically. Positive control with 2% olive oil and negative control without fatty substance were also maintained.
A lipid assimilation in vitro assay was designed to investigate lipid effect >C-10 fatty acid or their esters on growth of M. furfur (MTCC 1374). Sabouraud Dextrose containing low-melt agar was melted and cooled to 38° C. Fatty acids/esters constituents, e.g. fatty acids or esters, such as lauric acid, palmitic acid, myristic acid, oleic acid, linoleic acid, isopropyl myristate, ethyl oleate, mustard oils, coconut oil were added at different concentration to study the growth of the fungus. Positive control with 2% olive oil and negative control without fatty substance were also maintained. After solidification, agar plates were streaked with M. furfur innoculum adjusted to appropriate cfu/ml, aseptically.

[2] = Table 6, compositions of Table 5
[3] = piroctone olamine oil compositions, incubated 6 days
[4] = Example 6B, different concentration (olive oil 2%)

Structure (SMILES): CC(=O)N1CCN(c2ccc(OCC3COC(Cn4ccnc4)(c4ccc(Cl)cc4Cl)O3)cc2)CC1 (stereo not drawn) [Keto in DMSO, Ketoconazole]
Growth of fungus at concentration 0.0625 μg/ml (MIC determination) ([1]; 0.0625 μg/ml, ketoconazole oil compositions, incubated 6 days): +
Growth of fungus at concentration 0.125 μg/ml (MIC determination) ([1]; 0.125 μg/ml, ketoconazole oil compositions, incubated 6 days): +
Growth of fungus at concentration 0.25 μg/ml (MIC determination) ([1]; 0.25 μg/ml, ketoconazole oil compositions, incubated 6 days): −
Growth of fungus at concentration 0.5 μg/ml (MIC determination) ([1]; 0.5 μg/ml, ketoconazole oil compositions, incubated 6 days): −
Growth of fungus at concentration 1 μg/ml (MIC determination) ([1]; 1 μg/ml, ketoconazole oil compositions, incubated 6 days): −
Growth of fungus at concentration 2 μg/ml (MIC determination) ([1]; 2 μg/ml, ketoconazole oil compositions, incubated 6 days): −

Growth of fungus at concentration 8 μg/ml (MIC determination) [1, 2]: +
Growth of fungus at concentration 8 μg/ml (MIC determination) [1, 3]: +
Growth of fungus at concentration 16 μg/ml (MIC determination) [1, 2]: +
Growth of fungus at concentration 16 μg/ml (MIC determination) [1, 3]: +
Growth of fungus at concentration 32 μg/ml (MIC determination) [1, 2]: −
Growth of fungus at concentration 32 μg/ml (MIC determination) [1, 3]: −
Growth of fungus at concentration 64 μg/ml (MIC determination) [1, 2]: −
Growth of fungus at concentration 64 μg/ml (MIC determination) [1, 3]: −
Growth of fungus at concentration 4 μg/ml (MIC determination) (M. obtusa; 4 μg/ml): +
Growth of fungus at concentration 8 μg/ml (MIC determination) (M. obtusa; 8 μg/ml): +
Growth of fungus at concentration 16 μg/ml (MIC determination) (M. obtusa; 16 μg/ml): +
Growth of fungus at concentration 32 μg/ml (MIC determination) (M. obtusa; 32 μg/ml): −
Growth of fungus at concentration 64 μg/ml (MIC determination) (M. obtusa; 64 μg/ml): −
Structure (SMILES): Cc1cc(CC(C)CC(C)(C)C)n(O)c(=O)c1.NCCO (stereo not drawn) [PO in DMSO, Piroctone olamine]

Structure (SMILES): CCCCCCCCCC(=O)O [capric acid]
Growth of M. furfur with the substance as nutrient in culture media (M. furfur (MTCC 1374); Example 3): no growth
Growth of M. furfur with the substance as nutrient in culture media (M. furfur (MTCC 1374); Example 6A, 2% concentration): no growth

Structure (SMILES): CCCCCCCC(=O)O [caprylic acid]
Growth of M. furfur with the substance as nutrient in culture media (M. furfur (MTCC 1374); Example 3): no growth
Growth of M. furfur with the substance as nutrient in culture media (M. furfur (MTCC 1374); Example 6A, 2% concentration): no growth

Structure (SMILES): CCCCCCCC/C=C\CCCCCCCC(=O)OCC [ethyl oleate]
Growth of M. furfur with the substance as nutrient in culture media (M. furfur (MTCC 1374); Example 3): confluent growth
Growth of M. furfur with the substance as nutrient in culture media (M. furfur (MTCC 1374); [4]): confluent growth

Structure (SMILES): CCCCCCCCCCCCCC(=O)OC(C)C [isopropyl myristate]
Growth of M. furfur with the substance as nutrient in culture media (M. furfur (MTCC 1374); Example 3): confluent growth
Growth of M. furfur with the substance as nutrient in culture media (M. furfur (MTCC 1374); [4]): confluent growth

Structure (SMILES): CCCCCCCCCCCC(=O)O [lauric acid]
Growth of M. furfur with the substance as nutrient in culture media (M. furfur (MTCC 1374); Example 3): confluent growth
Growth of M. furfur with the substance as nutrient in culture media (M. furfur (MTCC 1374); [4]): confluent growth

Structure (SMILES): CCCCC/C=C\C/C=C\CCCCCCCC(=O)O [linoleic acid]
Growth of M. furfur with the substance as nutrient in culture media (M. furfur (MTCC 1374); Example 3): confluent growth
Growth of M. furfur with the substance as nutrient in culture media (M. furfur (MTCC 1374); [4]): confluent growth

Structure (SMILES): CCCCCCCCCCCCCC(=O)O [myristic acid]
Growth of M. furfur with the substance as nutrient in culture media (M. furfur (MTCC 1374); [4]): confluent growth

Structure (SMILES): CCCCCCCC/C=C\CCCCCCCC(=O)O [oleic acid]
Growth of M. furfur with the substance as nutrient in culture media (M. furfur (MTCC 1374); Example 3): confluent growth
Growth of M. furfur with the substance as nutrient in culture media (M. furfur (MTCC 1374); [4]): confluent growth

Structure (SMILES): CCCCCCCCCCCCCCCC(=O)O [palmitic acid]
Growth of M. furfur with the substance as nutrient in culture media (M. furfur (MTCC 1374); Example 3): confluent growth
Growth of M. furfur with the substance as nutrient in culture media (M. furfur (MTCC 1374); [4]): confluent growth
